The data set in a line: Absorption test by oral administration: concentration in whole blood. Format: in vivo. As to conditions: cynomolgus monkey, cynomolgus monkeys (six), oral 0.32 mg/kg, aqueous suspension of Prescription 7 diluted to 0.064 mg/ml, average ± standard error, read-out: Conc. in whole blood. On the procedure:
The aqueous suspension obtained in Prescription 7 was used.
The oral agent mentioned above was diluted with purified water to have the concentration of FK 506 substance of 0.064 mg/ml. The resultant was orally administered to six cynomolgus monkeys (0.32 mg/kg).
The concentration of FK 506 substance in whole blood was measured 0.5, 1, 2, 4 and 6 hours after the administration in accordance with the aforesaid enzyme immunoassay.
The test results are represented by the average ± standard error.

Molecules are shown by their SMILES.

For `C=CCC1C=C(C)CC(C)CC(OC)C2OC(O)(C(=O)C(=O)N3CCCCC3C(=O)OC(C(C)=CC3CCC(O)C(OC)C3)C(C)C(O)CC1=O)C(C)CC2OC` (centres unmarked) [FK 506 substance, 17-allyl-1,14-dihydroxy-12-[2-(4-hydroxy-3-methoxycyclohexyl)-1-methylvinyl]-23,25-dimethoxy-13,19,21,27-tetramethyl-11,28-dioxa-4-azatricyclo-[22.3.1.0^4,9]octacos-18-ene-2,3,10,16-tetraone], the concentration at 0.5 h (0.5 hours) was 13.4 ± 9.88 ng/mL. Moreover, the concentration at 1 h (1 hour) stood at 18.6 ± 9.36 ng/mL. Where the note is “2 hours”, the concentration at 2 h was 18.6 ± 9.89 ng/mL. Moreover, the concentration at 4 h (4 hours) stood at 15.3 ± 7.77 ng/mL. For the same compound, the concentration at 6 h (6 hours) turned out to be 12.4 ± 9.33 ng/mL.

The values above are taken from patent publication US5496564A, “Suspendible composition and process for preparing the same” (Fujisawa Pharmaceutical Co., Ltd., priority 1990, dated 1996).
